Measurements reported in patent US20190308988A1, “OPIOID RECEPTOR ANTAGONIST PRODRUGS” (Nirsum Laboratories, Inc., priority 2017, published 2019).
Values after ≈ are worked out from the molar mass of the structure shown. Read-outs that look alike come from different tables or passages of the source.

How the values were obtained:
DOR = target: T1, DOR (Homo sapiens, UniProt P41143); assay: Opioid receptor binding assay, DOR ([3H]-DADLE)
T1 construct: expressed in transfected cells
Protocol: (§1) Receptor binding assays were performed to assess the ability of compounds to inhibit binding to radiolabeled ligand.
(§2) The stable cell lines were established and prepared cell membrane obtained using these cell lines.
(§3) 1) Transfer 1 μl of specified concentration compound to assay plate according to the plate map for nonspecific binding. Transfer 1 μl of DMSO to assay plate according to plate map for total binding. 2) Follow the plate map. Dispense 99 μl of membrane stocks into the plate. 3) Add 100 μl of radio ligand. 4) Seal the plates. Incubate at RT for 1 hour. 5) Soak the Unifilter-96 GF/C filter plates with 50 μl of 0.3% PEI per well for at least 0.5 hour at room temperature. 6) When binding assays are completed, filter the reaction mixture through GF/C plates using Perkin Elmer Filtermate Harvester, and then wash each plate for 4 times with cold wash buffer. 7) Dry the filter plates for 1 hour at 50 degrees. 8) After drying, seal the bottom of the filter plate wells using Perkin Elmer Unifilter-96 backing seal tape. Add 50 μl of Perkin Elmer Microscint 20 cocktail. Seal top of filter plates with Perkin Elmer TopSeal-A sealing film. 9) Count ^3H trapped on filter using Perkin Elmer MicroBeta2 Reader second day. 10) Analyze the data with GraphPad Prism 5. Calculate the “Inhibition [% Control]” using the equation: % Inh=(1−Background subtracted Assay value/Background subtracted HC value)*100.

KOR = target: T2, KOR (Homo sapiens, UniProt P41145); assay: Opioid receptor binding assay, KOR ([3H]Diprenorphine)
T2 construct: expressed in transfected cells
Protocol: as §1, §2, §3

MOR = target: T3, MOR (Homo sapiens, UniProt P35372); assay: Opioid receptor binding assay, MOR ([3H]DAMGO)
T3 construct: expressed in transfected cells
Protocol: as §1, §2, §3

[1] = Solubility determination in oil (Table 10); conditions: thermodynamic from solid; for solubility at 24 h: 25 °C, oil or lipid, Heating Temp. 60 °C, Obs. Temp. 25 °C
Protocol: A known amount of test substance (˜40 mg) was weighed into the vial, 100 μL of oil was added and heated to 60° C. and then system was slurried to reach equilibrium. […] Extra oil was added into the vial once compound precipitated out and then the system was re-equilibrated at 1000 rpm at room temperature (25° C.). Final concentration was determined by HPLC method as described below in Table 6a and 6b.

[2] = Dog pharmacokinetic studies, deep intramuscular administration; format: in vivo, Beagle dogs; conditions: for AUC(0-inf) / half-life: Beagle, dog, plasma, im, Cottonseed + 1% Benzyl Alcohol; for AUC(0-inf): read-out: AUC0-inf (ng · h/mL) prodrug; for half-life: read-out: Half-life t1/2 (hour) prodrug (converted)
Protocol: The purpose of this study is to determine the pharmacokinetics of test compounds in plasma, following deep intramuscular administration to Beagle dogs (n=3, unless otherwise specified).
The dose formulation (concentration—400 mg base equivalents/ml in sesame oil+1% benzyl alcohol, unless otherwise specified) was administered via deep intramuscularly (unless otherwise specified). The injection vehicle was also dosed via deep intramuscular route (unless otherwise specified) on contralateral site of each animal at study initiation. The animals were sedated with Propofol at 6 mg/kg via IV administration. Following sedation hair was carefully removed from around the injection site and the area gently cleaned. Care will be taken to avoid irritating skin during shaving and cleaning the injection site. Then dogs will be dosed with deep IM administration. At least 2.5 cm depth from the surface into the central aspect of the quadriceps or biceps femoris muscle, by angling the needle toward the femur. If the needle hits the femur, simply draws back slightly and then inject. The dose volume will be determined by the animals' body weight collected on the morning of dosing day. For repeated administration, the injection sites may be rotated to minimize tissue injury.
Blood samples were collected from a peripheral vessel from restrained, non-sedated animals per sampling time point.
Approximately 0.8 mL blood will be collected at each time point.
Each collected blood sample was centrifuged for 4 minutes at 4° C. and 10000 rpm for plasma collection. Plasma was collected and transferred into a pre-labeled PP tube in dry ice at each time point and precipitated immediately using ACN at a ratio of 1:4 (plasma:ACN).
LC-MS/MS methods for the quantitative determination of test compound in biological matrix were developed. […] The sample analysis was performed concurrently with a set of calibration standards and two sets of QC samples using the LC-MS/MS method.
Plasma concentration versus time data was analyzed by non-compartmental approaches using the Phoenix WinNonlin 6.3 software program. Cmax, Tmax, T1/2, AUC(0-t), AUC(0-inf), MRT(0-t), MRT(0-inf) and graphs of plasma concentration versus time profile were prepared.

[3] = IM 96 mg/kg, Cottonseed oil + 1% Benzyl Alcohol

T3 sequence (P35372 whole entry): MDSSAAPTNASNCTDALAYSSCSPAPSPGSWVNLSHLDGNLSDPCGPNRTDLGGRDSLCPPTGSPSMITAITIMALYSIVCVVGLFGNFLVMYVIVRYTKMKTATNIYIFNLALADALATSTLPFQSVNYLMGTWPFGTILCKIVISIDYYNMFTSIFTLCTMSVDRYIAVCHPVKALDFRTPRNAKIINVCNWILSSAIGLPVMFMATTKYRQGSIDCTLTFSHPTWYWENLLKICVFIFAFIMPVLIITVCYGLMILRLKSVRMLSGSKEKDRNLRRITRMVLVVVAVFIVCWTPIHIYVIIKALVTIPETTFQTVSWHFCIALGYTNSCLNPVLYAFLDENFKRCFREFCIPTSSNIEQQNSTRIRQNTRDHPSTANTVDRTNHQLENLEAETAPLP
T2 sequence (P41145 whole entry): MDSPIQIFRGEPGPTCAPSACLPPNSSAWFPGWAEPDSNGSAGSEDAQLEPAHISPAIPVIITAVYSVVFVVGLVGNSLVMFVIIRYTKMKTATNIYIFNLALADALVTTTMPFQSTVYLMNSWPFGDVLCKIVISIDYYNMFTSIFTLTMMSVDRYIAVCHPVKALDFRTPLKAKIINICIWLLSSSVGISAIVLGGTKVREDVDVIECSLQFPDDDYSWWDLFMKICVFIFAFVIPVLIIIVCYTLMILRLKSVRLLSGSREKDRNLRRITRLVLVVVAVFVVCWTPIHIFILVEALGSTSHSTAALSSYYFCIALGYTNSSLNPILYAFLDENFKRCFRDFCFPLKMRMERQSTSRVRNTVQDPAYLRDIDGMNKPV
T1 sequence (P41143 whole entry): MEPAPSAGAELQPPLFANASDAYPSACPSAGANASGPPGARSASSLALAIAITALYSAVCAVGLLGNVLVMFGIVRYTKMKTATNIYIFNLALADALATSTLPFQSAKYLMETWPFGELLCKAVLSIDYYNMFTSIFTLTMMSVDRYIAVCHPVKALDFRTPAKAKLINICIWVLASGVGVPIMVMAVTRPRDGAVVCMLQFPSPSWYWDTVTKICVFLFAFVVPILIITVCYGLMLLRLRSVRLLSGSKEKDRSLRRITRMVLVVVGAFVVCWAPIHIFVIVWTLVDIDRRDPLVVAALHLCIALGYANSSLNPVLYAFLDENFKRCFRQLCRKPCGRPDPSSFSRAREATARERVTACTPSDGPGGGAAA

## C=C1CC[C@@]2(O)C3Cc4ccc(OCOC(=O)CCCCCCCCCCCCC)c5c4[C@@]2(CCN3CC2CC2)[C@H]1O5 [Compound 45, (((4aS,7aS,12bS)-3-(cyclopropylmethyl)-4a-hydroxy-7-methylene-2,3,4,4a,5,6,7,7a-octahydro-1H-4,12-methanobenzofuro[3,2-e]isoquinolin-9-yl)oxy)methyl tetradecanoate]
DOR
  IC50: 68.4 nM
KOR
  IC50: 5.5 nM
MOR
  IC50: 2 nM
[1]; Approximate Solubility in Excipient: Cottonseed oil
  solubility at 24 h: > 402 mg/mL
[1]; Approximate Solubility in Excipient: Sesame oil
  solubility at 24 h: 267 to 288 mg/mL (≈ 460 to 497 mM)
[1]; 40 °C, water, Equilibrium solubility: Water, Heating Temp. 40 °C, Obs. Temp. 40 °C
  solubility thermodynamic: < 0.001 mg/mL
[2]; 30 mg/kg, IM 30 mg/kg
  AUC(0-inf): 100 ng·h/mL
  half-life: 151 h
[2]; 48 mg/kg, IM 48 mg/kg
  AUC(0-inf): 267 ng·h/mL
  half-life: 171 h
[2]; [3]
  AUC0-inf (ng · h/mL) prodrug: None
  Half-life t1/2 (hour) prodrug: None
